Test results taken from patent publication US20260184708A1, “PYRIDAZINONES AND METHODS OF USE THEREOF” (GFB (ABC), LLC, priority 2017, published 2026).

What follows are molecules tested against T1, TRPC4 (Homo sapiens, UniProt Q9UBN4) (assay: TRPC4 FLIPR Assay (HEK-TREx hTRPC4, Englerin A stimulation)). Details: Table 9; HEK-TREx hTRPC4; read-out: hTRPC4-FLIPR IC50.
T1 construct: expressed in transfected cells; host or cells: HEK-TREx (HekTrex-293), cell line ICLN-1694, tetracycline-induced
T1 sequence (Q9UBN4 1-982 isoform Q9UBN4-5): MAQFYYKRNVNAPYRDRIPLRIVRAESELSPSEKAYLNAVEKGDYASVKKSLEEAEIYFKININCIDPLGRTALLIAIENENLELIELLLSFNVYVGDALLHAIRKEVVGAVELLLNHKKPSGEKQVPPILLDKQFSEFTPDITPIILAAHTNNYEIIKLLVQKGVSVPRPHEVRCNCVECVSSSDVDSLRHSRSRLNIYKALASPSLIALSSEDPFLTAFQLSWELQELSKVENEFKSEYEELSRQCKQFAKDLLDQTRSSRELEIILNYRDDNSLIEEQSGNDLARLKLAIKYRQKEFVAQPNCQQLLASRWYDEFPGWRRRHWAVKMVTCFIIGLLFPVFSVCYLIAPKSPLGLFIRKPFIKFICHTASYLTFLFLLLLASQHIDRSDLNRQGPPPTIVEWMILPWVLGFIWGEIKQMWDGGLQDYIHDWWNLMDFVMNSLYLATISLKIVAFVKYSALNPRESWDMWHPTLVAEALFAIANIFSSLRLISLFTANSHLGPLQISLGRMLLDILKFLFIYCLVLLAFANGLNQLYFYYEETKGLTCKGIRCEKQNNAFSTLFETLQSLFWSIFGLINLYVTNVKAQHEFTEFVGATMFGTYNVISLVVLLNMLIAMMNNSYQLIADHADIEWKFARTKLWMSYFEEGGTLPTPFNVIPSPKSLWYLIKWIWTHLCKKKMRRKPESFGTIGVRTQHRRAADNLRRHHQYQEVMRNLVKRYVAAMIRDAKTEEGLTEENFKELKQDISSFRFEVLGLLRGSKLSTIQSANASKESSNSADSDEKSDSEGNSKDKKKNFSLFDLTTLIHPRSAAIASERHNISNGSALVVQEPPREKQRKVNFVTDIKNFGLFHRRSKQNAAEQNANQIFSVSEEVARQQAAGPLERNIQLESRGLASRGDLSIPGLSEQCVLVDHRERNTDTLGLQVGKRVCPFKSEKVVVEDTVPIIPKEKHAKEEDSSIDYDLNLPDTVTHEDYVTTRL
Type: cell-based
Procedure, shortened: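 Tetracycline-induced (1 μg/ml) HEK-TREx hTRPC4 cells in EBSS, calcium dye-loaded; compound pre-incubated 5 min, then 100 nM Englerin A added and fluorescence followed 5 min on FLIPR.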

SMILES | IC50
C[C@@H](c1ccc(F)cc1C(F)(F)F)N1CCN(c2cn[nH]c(=O)c2Cl)CC1=O [drawing 1049] | 0.01 to 1000 nM
C[C@@H](c1ccccc1C(F)(F)F)N1CCN(c2cn[nH]c(=O)c2Cl)CC1=O [drawing 1044] | 0.01 to 1000 nM
C[C@H](c1ccc(F)cc1C(F)(F)F)N1C[C@@H](C)N(c2cn[nH]c(=O)c2Cl)CC1=O [drawing 1048] | 0.01 to 1000 nM

Same assay, conditions: Table 10; HEK-TREx hTRPC4; read-out: TRPC4-FLIPR ICSO

SMILES | IC50
C[C@H](c1ccccc1C(F)(F)F)n1nc(C(N)=O)c2c1CCN(c1cn[nH]c(=O)c1Cl)C2 [drawing 1123] | 0.01 to 1000 nM
CCN(c1ncc2c(n1)CN(c1cn[nH]c(=O)c1Cl)C2)c1ccccc1Cl [drawing 1148] | 0.01 to 1000 nM
CN(c1ncc2c(n1)CN(c1cn[nH]c(=O)c1Cl)C2)c1ccc(F)cc1Cl [drawing 1144] | 0.01 to 1000 nM
O=c1[nH]ncc(N2CCc3c(Cc4ccc(F)cc4C(F)(F)F)n[nH]c3C2)c1Cl [drawing 1153] | 0.01 to 1000 nM
C[C@@H](c1cccnc1CC(F)F)n1nnc2c1CCN(c1cn[nH]c(=O)c1Cl)C2 [drawing 1125] | 0.01 to 1000 nM
C[C@H](c1ccc(F)cc1C(F)(F)F)n1nnc2c1CCN(c1cn[nH]c(=O)c1Cl)[C@H]2C [drawing 1092] | 0.01 to 1000 nM
COCc1ccccc1Cn1cnc2c1CCN(c1cn[nH]c(=O)c1Cl)C2 [drawing 1053] | 0.01 to 1000 nM
COC[C@H](c1ccccc1C(F)(F)F)n1cnc2c1CCN(c1cn[nH]c(=O)c1Cl)C2 [drawing 1120] | 0.01 to 1000 nM
C[C@H](c1ccccc1C(F)F)n1nnc2c1CCN(c1cn[nH]c(=O)c1Cl)C2 [drawing 1100] | 0.01 to 1000 nM
C[C@@H]1Cc2c(nnn2[C@@H](C)c2ccc(F)cc2C(F)(F)F)CN1c1cn[nH]c(=O)c1Cl [drawing 1085] | 0.01 to 1000 nM
O=c1[nH]ncc(N2CCc3c(nnn3Cc3ccc(F)cc3CC(F)(F)F)C2)c1Cl [drawing 1131] | 0.01 to 1000 nM
O=c1[nH]ncc(N2CCc3c(ncn3Cc3ccc(F)cc3Cl)C2)c1Cl [drawing 1136] | 0.01 to 1000 nM
C[C@@H](c1ccccc1C(F)F)n1nnc2c1CCN(c1cn[nH]c(=O)c1Cl)C2 [drawing 1106] | 0.01 to 1000 nM
C[C@H](c1ccc(F)cc1C(F)F)n1nc(C(N)=O)c2c1CCN(c1cn[nH]c(=O)c1Cl)C2 | 0.01 to 1000 nM
CS(=O)(=O)c1nc2c(n1Cc1ccccc1C(F)(F)F)CCN(c1cn[nH]c(=O)c1Cl)C2 [drawing 1142] | 0.01 to 1000 nM
CNC(=O)c1nc2c(n1Cc1ccccc1C(F)(F)F)CCN(c1cn[nH]c(=O)c1Cl)C2 [drawing 1134] | 0.01 to 1000 nM

SMILES | IC50
C[C@@H](c1ccc(F)cc1C(F)F)n1nnc2c1CCN(c1cn[nH]c(=O)c1Cl)C2 [drawing 1107] | 0.01 to 1000 nM
CNC(=O)c1nn(Cc2ccc(F)cc2C(F)F)c2c1CN(c1cn[nH]c(=O)c1Cl)CC2 [drawing 1117] | 0.01 to 1000 nM
CCc1ncccc1N(C)c1ncc2c(n1)CN(c1cn[nH]c(=O)c1Cl)C2 [drawing 1154] | 0.01 to 1000 nM
C[C@@H]1Cc2c(c(C(N)=O)nn2Cc2ccccc2C(F)(F)F)CN1c1cn[nH]c(=O)c1Cl [drawing 1118] | 0.01 to 1000 nM
O=c1[nH]ncc(N2CCc3c(ncn3Cc3ccccc3Cl)C2)c1Cl [drawing 1139] | 0.01 to 1000 nM
CC(c1ccc(F)cc1C(F)F)n1nc(C(N)=O)c2c1CCN(c1cn[nH]c(=O)c1Cl)C2 (centres unmarked) [drawing 1114] | 0.01 to 1000 nM
C[C@@H](c1ccccc1Cl)n1nnc2c1CCN(c1cn[nH]c(=O)c1Cl)C2 [drawing 1140] | 0.01 to 1000 nM
[2H]c1nc2c(n1Cc1ccccc1C(F)(F)F)CCN(c1cn[nH]c(=O)c1Cl)C2 | 0.01 to 1000 nM
O=c1[nH]ncc(N2CCc3c(c(=O)[nH]n3Cc3ccccc3C(F)(F)F)C2)c1Cl [drawing 1081] | 0.01 to 1000 nM
COCc1ncccc1Cn1cnc2c1CCN(c1cn[nH]c(=O)c1Cl)C2 [drawing 1065] | 1000 to 5000 nM
C[C@@H]1Cc2c(nnn2[C@@H](C)c2ccccc2C(F)(F)F)CN1c1cn[nH]c(=O)c1Cl [drawing 1071] | 0.01 to 1000 nM
NC(=O)c1nc2c(n1Cc1ccccc1C(F)(F)F)CCN(c1cn[nH]c(=O)c1Cl)C2 [drawing 1135] | 0.01 to 1000 nM
CNC(=O)c1nn([C@H](C)c2ccccc2C(F)F)c2c1CN(c1cn[nH]c(=O)c1Cl)CC2 [drawing 1113] | 0.01 to 1000 nM
C[C@H](c1ccccc1Cl)n1nnc2c1CCN(c1cn[nH]c(=O)c1Cl)C2 [drawing 1133] | 0.01 to 1000 nM
C[C@H](c1ccccc1C(F)(F)F)n1nnc2c1CCN(c1cn[nH]c(=O)c1Cl)[C@H]2C [drawing 1078] | 0.01 to 1000 nM
CCS(=O)(=O)c1nc2c(n1Cc1ccccc1C(F)(F)F)CCN(c1cn[nH]c(=O)c1Cl)C2 [drawing 1079] | 0.01 to 1000 nM
